Earlier results in patent US20120301532A1, “COMPOSITIONS AND METHODS FOR TREATING MATERIALS WITH INSECTICIDES AND POTENTIATING AGENTS” (ALLERGY TECHNOLOGIES, LLC, priority 2011, published 2012).

Tested on: bed bugs
Conditions: bed bug attractants, background statement

Question: With O=C=O [CO2] as the molecule, how does the effective attractant range read?
Answer: The effective attractant range was ≥ 86 centimeters.
